Measurements published in BindingDB's records for doi:10.3109/14756360903468155 (Banaras Hindu University, 2010).

molecular target: Urease (Glycine max, UniProt Q949H4); assay: Urease Inhibition Assay; settings: pH 7; 37 °C
Procedure: The inhibition studies of soybean urease were initiated with boric acid and boronic acids (butylboronic acid, 4-bromophenylboronic acid, and phenylboronic acid). Also, heavy metal ions (HgCl2, AgCl, and Cu(CH3COO)2) and sodium salts of mineral acids (NaF, NaCl, NaNO3, and Na2SO4) were investigated for their inhibitory effects. Stock solutions of inhibitors, except for 4-bromophenylboronicacid, were prepared in 0.05 M Tris-acetate buffer, pH 7.0, and were suitably diluted for experiments, whereas a stock solution of 4-bromophenylboronic acid was prepared in absolute ethanol and subsequently diluted in respective buffer. The activity assay was carried out at standard conditions as described earlier in the presence of varying concentrations of inhibitors. The yellow-orange colored solution was measured at 405 nm on a Unicam UV-2 spectrophotometer. The amount of NH3 liberated in the reaction mixture was estimated by calibrating Nessler's reagent with standard NH4Cl solution. One enzyme unit is defined as the amount of urease required to liberate 1 μmol of ammonia per minute under our test conditions (0.1 M urea, 0.05 M Trisacetatebuffer, pH 7.0, 37°C).

Chain of Urease (Q949H4 whole entry): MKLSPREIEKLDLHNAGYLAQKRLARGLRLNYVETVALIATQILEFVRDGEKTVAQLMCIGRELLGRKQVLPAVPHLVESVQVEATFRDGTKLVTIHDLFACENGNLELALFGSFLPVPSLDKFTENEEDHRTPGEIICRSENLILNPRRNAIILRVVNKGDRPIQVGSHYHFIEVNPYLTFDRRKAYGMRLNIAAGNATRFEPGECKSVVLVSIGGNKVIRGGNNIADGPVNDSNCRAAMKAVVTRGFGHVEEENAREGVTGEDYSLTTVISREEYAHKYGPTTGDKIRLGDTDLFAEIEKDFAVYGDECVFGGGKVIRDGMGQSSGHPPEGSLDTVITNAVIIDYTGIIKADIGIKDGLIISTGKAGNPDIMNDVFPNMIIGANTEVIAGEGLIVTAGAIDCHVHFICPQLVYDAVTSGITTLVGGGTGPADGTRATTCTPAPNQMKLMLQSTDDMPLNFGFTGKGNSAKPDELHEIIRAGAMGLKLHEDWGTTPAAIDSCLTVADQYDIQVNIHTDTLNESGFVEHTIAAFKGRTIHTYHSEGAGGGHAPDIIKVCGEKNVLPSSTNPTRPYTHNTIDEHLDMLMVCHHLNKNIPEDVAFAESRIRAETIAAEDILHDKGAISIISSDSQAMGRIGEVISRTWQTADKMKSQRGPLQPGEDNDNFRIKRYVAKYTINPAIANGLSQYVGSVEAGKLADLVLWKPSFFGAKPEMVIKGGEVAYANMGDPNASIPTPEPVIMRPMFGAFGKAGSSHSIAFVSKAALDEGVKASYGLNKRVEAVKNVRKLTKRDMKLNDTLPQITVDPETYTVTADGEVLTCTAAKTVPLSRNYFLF

Row | Ki [µM] | SMILES
1 | 220 | OB(O)c1ccc(Br)cc1 [4-bromo phenyl boronic acid]
2 | 200 | OB(O)O [Boric acid]
3 | 1500 | CCCCB(O)O [Borinic acid derivative]
4 | 2000 | OB(O)c1ccccc1 [Phenylboronic acid, 22]
